Laboratory results taken from patent US5834259A, “Process and composition for preparing D-aspartic acid” (Monsanto Company, priority 1996, dated 1998).

Legend:
Type in all cases: biochemical, E. coli K12
[1] = molecular target: T1, L-aspartate-α-decarboxylase (Escherichia coli, UniProt P0A790); experiment: 1.0M D/L-aspartate, 50 g/l cells, reaction B (Example 6); conditions: 37° C.
T1 construct: expressed in transfected cells; host or cells: E. coli W3110 transformed with pIF309 = strain NS3291 (ATCC 98675), whole cells
T1 sequence (P0A790 25-126): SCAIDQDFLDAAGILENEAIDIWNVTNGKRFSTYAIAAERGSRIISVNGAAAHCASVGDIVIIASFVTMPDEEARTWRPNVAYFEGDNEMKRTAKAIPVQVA
T1 sequence (P0A790 1-24): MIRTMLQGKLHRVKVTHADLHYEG
Protocol: 1.0M D/L-aspartate was tested as a substrate for two enzyme cell loads, 100 g/l cells, referred to here as reaction "A", and 50 g/l cells, referred to here as reaction "B".
133.1 g of D/L-aspartic acid was dissolved in approximately 600 ml deionized H2 O and pH was adjusted to 7.0 with NaOH, using 100 ml of 10N NaOH and a small amount of 1.0N NaOH. The substrate for reaction A was brought to 963 ml with deionized H2 O. The reaction was started with 137 ml cells that were stored in the cold room. For reaction B, the substrate was brought to a volume of 981.5 ml. The reaction was started with […] cells.
Both reactions were carried out in 2 L fermentors at pH 7.0 without constant adjustments and at 37° C. Samples were removed over time, centrifuged and the supernatant fluid was diluted and submitted for D- and L-aspartic acid HPLC analysis.

[2] = molecular target: T1, L-aspartate-α-decarboxylase; experiment: Temperature study, 45° C. (Example 9); conditions: for concentration in supernatant fluid / percent remaining: 1.0M, 100 g/l cells
Protocol: (§1) 133.1 g (1 mol) of D/L-aspartic acid was dissolved in deionized H2 O and the pH was adjusted to 7.0 with 10N NaOH, approximately 100 ml. Cells, freshly thawed from -80° C., were added to achieve a final concentration of 100 g/l. Three 2 L fermentors were each charged with 963 ml of substrate solution and 137 ml of cells and then heated to 37° C. and 45° C. while mixing at 300 rpm or heated to 50° C. while mixing at 450 rpm. Samples, approximately 1 ml, were removed over time and pH adjusted to 7.0 with either NaOH or HCl. After centrifugation to remove cells, the supernatant fluid was analyzed for both D- and L-aspartic acid.

[3] = molecular target: T1, L-aspartate-α-decarboxylase; experiment: Temperature study, 37° C. (Example 9); conditions: for concentration in supernatant fluid / percent remaining: 1.0M, 100 g/l cells
Protocol: as §1

[4] = molecular target: T1, L-aspartate-α-decarboxylase; experiment: Re-use of cells on fresh 0.5M D/L-aspartate (Example 5); conditions: re-used cells, 37° C.
Protocol: Cells that had already been used in Example 3 were put in fresh substrate to determine if they were still active.
Fresh D/L-aspartate substrate was prepared as previously described in Example 3. The cells from Example 3 were resuspended in deionized H2 O and made up to 100 ml. The pH of the substrate (900 ml, 0.5M D/L-Asp) was adjusted to 7.0 with NaOH. After placing in the 2 L fermentor, the cells (100 ml) were added. There was no pH control and deionized H2 O was used for substrate. Samples were removed over time, centrifuged and the supernatant fluid diluted appropriately for both D- and L-aspartic acid determination. Temperature was set at 37° C.

N[C@H](CC(=O)O)C(=O)O [D-Asp, D-aspartic acid]
concentration in supernatant fluid ([1]; 0.0000 hr): 56.730 mg/mL
concentration in supernatant fluid ([1]; 2.0000 hr): 52.420 mg/mL
concentration in supernatant fluid ([1]; 4.5000 hr): 51.340 mg/mL
concentration in supernatant fluid ([1]; 7.0000 hr): 50.470 mg/mL
stability of the isomer [2]: stable
concentration in supernatant fluid ([2]; 0.000 hr): 55.280 mg/mL
concentration in supernatant fluid ([2]; 2.5000 hr): 54.820 mg/mL
percent remaining ([2]; 2.5000 hr): 99.168%
concentration in supernatant fluid ([2]; 4.0000 hr): 53.960 mg/mL
percent remaining ([2]; 4.0000 hr): 97.612%
concentration in supernatant fluid ([2]; 6.0000 hr): 53.460 mg/mL
percent remaining ([2]; 6.0000 hr): 96.708%
concentration in supernatant fluid ([2]; 8.0000 hr): 54.040 mg/mL
percent remaining ([2]; 8.0000 hr): 97.757%
concentration in supernatant fluid ([2]; 10.000 hr): 54.870 mg/mL
percent remaining ([2]; 10.000 hr): 99.258%
concentration in supernatant fluid ([2]; 12.000 hr): 54.060 mg/mL
percent remaining ([2]; 12.000 hr): 97.793%
concentration in supernatant fluid ([2]; 20.000 hr): 52.360 mg/mL
percent remaining ([2]; 20.000 hr): 94.718%
concentration in supernatant fluid ([2]; 24.000 hr): 51.310 mg/mL
percent remaining ([2]; 24.000 hr): 92.818%
concentration in supernatant fluid ([2]; 29.000 hr): 53.830 mg/mL
percent remaining ([2]; 29.000 hr): 97.377%
concentration in supernatant fluid ([2]; 34.000 hr): 52.880 mg/mL
percent remaining ([2]; 34.000 hr): 95.658%
concentration in supernatant fluid ([2]; 44.000 hr): 53.640 mg/mL
percent remaining ([2]; 44.000 hr): 97.033%
concentration in supernatant fluid ([2]; 48.000 hr): 52.730 mg/mL
percent remaining ([2]; 48.000 hr): 95.387%
concentration in supernatant fluid ([2]; 68.000 hr): 53.560 mg/mL
percent remaining ([2]; 68.000 hr): 96.889%
concentration in supernatant fluid ([2]; 92.000 hr): 53.560 mg/mL
percent remaining ([2]; 92.000 hr): 96.889%
stability of the isomer [3]: stable
concentration in supernatant fluid ([3]; 0.0000 hr): 55.000 mg/mL
concentration in supernatant fluid ([3]; 2.5000 hr): 54.310 mg/mL
percent remaining ([3]; 2.5000 hr): 98.745%
concentration in supernatant fluid ([3]; 4.0000 hr): 54.440 mg/mL
percent remaining ([3]; 4.0000 hr): 98.982%
concentration in supernatant fluid ([3]; 6.0000 hr): 54.470 mg/mL
percent remaining ([3]; 6.0000 hr): 99.036%
concentration in supernatant fluid ([3]; 8.0000 hr): 54.760 mg/mL
percent remaining ([3]; 8.0000 hr): 99.564%
concentration in supernatant fluid ([3]; 10.000 hr): 55.840 mg/mL
percent remaining ([3]; 10.000 hr): 101.53%
concentration in supernatant fluid ([3]; 12.000 hr): 56.760 mg/mL
percent remaining ([3]; 12.000 hr): 103.20%
concentration in supernatant fluid ([3]; 20.000 hr): 55.460 mg/mL
percent remaining ([3]; 20.000 hr): 100.84%
concentration in supernatant fluid ([3]; 24.000 hr): 55.390 mg/mL
percent remaining ([3]; 24.000 hr): 100.71%
concentration in supernatant fluid ([3]; 29.000 hr): 53.990 mg/mL
percent remaining ([3]; 29.000 hr): 98.164%
concentration in supernatant fluid ([3]; 34.000 hr): 53.440 mg/mL
percent remaining ([3]; 34.000 hr): 97.164%
concentration in supernatant fluid ([3]; 44.000 hr): 52.960 mg/mL
percent remaining ([3]; 44.000 hr): 96.291%
concentration in supernatant fluid ([3]; 48.000 hr): 52.940 mg/mL
percent remaining ([3]; 48.000 hr): 96.255%
concentration in supernatant fluid ([3]; 68.000 hr): 49.940 mg/mL
percent remaining ([3]; 68.000 hr): 90.800%
concentration in supernatant fluid ([3]; 92.000 hr): 50.670 mg/mL
percent remaining ([3]; 92.000 hr): 92.127%
concentration in supernatant fluid ([4]; 0.0000 hr): 30.850 mg/mL
concentration in supernatant fluid ([4]; 6.2500 hr): 30.820 mg/mL
percent remaining ([4]; 6.2500 hr): 99.903%
concentration in supernatant fluid ([4]; 15.250 hr): 29.870 mg/mL
percent remaining ([4]; 15.250 hr): 96.823%
concentration in supernatant fluid ([4]; 25.750 hr): 28.250 mg/mL
percent remaining ([4]; 25.750 hr): 91.572%
concentration in supernatant fluid ([4]; 28.000 hr): 27.980 mg/mL
percent remaining ([4]; 28.000 hr): 90.697%
concentration in supernatant fluid ([4]; 44.250 hr): 25.000 mg/mL
percent remaining ([4]; 44.250 hr): 81.037%
concentration in supernatant fluid ([4]; 63.500 hr): 21.760 mg/mL
percent remaining ([4]; 63.500 hr): 70.535%
concentration in supernatant fluid ([4]; 65.000 hr): 20.340 mg/mL
percent remaining ([4]; 65.000 hr): 65.932%
